From paper PMC7659177 (ACS omega, 2020)

Biological target: IP3R1 (HEK-IP3R1 cells) (Rattus norvegicus, UniProt P29994)
Test: Ca2+ release from stores of permeabilized cells, Mag-fluo […]
Format: cell-based

Chain of IP3R1 (HEK-IP3R1 cells) (P29994 whole entry): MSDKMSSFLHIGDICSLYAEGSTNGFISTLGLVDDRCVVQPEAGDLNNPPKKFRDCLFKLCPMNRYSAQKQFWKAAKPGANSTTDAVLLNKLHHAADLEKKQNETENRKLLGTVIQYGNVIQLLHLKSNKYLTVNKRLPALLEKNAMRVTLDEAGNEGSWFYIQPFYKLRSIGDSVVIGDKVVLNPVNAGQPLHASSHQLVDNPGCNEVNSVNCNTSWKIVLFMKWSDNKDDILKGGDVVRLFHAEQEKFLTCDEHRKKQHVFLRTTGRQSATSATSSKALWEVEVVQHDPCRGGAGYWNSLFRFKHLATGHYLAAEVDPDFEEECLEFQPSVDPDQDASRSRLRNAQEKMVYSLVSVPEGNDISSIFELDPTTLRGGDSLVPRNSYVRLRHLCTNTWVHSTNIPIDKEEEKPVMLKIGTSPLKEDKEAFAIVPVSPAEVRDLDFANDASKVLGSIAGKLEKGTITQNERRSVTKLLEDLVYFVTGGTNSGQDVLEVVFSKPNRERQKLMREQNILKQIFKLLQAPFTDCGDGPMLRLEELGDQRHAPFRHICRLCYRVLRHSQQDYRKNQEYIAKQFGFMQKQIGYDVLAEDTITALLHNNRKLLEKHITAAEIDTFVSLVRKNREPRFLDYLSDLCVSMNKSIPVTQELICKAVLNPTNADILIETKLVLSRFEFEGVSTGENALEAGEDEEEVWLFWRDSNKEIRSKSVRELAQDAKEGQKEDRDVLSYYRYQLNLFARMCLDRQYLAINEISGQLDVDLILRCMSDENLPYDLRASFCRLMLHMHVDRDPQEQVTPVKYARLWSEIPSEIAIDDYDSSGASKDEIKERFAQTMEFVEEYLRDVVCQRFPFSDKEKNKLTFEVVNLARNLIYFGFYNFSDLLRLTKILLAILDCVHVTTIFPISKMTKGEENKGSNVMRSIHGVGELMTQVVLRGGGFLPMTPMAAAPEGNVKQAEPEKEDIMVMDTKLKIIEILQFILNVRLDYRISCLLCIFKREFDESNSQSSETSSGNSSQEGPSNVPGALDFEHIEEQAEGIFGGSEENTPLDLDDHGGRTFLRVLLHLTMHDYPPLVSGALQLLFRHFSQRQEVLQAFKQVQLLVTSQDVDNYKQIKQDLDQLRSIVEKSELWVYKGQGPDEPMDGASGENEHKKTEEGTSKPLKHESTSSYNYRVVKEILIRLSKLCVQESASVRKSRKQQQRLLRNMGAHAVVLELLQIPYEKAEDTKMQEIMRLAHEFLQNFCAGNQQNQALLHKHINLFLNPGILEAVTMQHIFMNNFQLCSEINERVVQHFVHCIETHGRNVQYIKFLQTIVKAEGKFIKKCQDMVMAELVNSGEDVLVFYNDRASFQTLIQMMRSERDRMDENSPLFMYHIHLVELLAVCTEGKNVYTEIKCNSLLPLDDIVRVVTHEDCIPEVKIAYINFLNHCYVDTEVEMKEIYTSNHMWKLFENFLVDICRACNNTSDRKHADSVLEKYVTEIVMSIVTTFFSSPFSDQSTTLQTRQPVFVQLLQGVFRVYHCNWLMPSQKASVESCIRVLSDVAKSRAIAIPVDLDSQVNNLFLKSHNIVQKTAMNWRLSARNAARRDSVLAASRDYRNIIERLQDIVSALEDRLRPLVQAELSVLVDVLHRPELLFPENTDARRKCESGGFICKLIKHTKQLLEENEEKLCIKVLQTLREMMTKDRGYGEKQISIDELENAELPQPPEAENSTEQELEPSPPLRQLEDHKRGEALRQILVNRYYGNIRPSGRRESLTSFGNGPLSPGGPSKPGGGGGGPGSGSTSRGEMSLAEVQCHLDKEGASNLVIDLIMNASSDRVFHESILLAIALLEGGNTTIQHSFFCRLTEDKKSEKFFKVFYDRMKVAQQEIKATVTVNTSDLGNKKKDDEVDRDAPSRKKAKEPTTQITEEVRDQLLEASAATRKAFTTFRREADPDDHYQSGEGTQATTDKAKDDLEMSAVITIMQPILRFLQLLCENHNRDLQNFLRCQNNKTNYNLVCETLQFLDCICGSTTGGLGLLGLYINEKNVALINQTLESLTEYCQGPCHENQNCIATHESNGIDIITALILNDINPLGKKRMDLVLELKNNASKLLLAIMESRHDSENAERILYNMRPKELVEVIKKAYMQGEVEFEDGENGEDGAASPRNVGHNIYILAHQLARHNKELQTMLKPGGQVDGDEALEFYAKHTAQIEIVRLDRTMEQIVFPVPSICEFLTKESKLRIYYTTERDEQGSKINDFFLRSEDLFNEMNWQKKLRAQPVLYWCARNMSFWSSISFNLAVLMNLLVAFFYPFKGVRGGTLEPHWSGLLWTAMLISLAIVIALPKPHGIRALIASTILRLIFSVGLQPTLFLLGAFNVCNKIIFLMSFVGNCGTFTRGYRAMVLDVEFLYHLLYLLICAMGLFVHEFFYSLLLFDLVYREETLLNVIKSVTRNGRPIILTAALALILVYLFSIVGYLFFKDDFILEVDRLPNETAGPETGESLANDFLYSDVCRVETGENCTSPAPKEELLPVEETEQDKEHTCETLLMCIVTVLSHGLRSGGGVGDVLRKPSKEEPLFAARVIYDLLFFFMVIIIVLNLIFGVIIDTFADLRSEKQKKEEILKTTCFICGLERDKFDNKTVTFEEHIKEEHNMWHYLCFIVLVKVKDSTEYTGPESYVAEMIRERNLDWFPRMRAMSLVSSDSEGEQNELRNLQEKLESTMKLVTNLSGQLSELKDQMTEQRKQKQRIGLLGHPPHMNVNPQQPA

EC50: 0.022 µM
Structure (SMILES): Nc1ncnc2c1ncn2[C@@H]1O[C@H](CO)[C@@H](O[C@H]2[C@H](O)[C@H](O)[C@@H](OP(=O)(O)O)[C@H](OP(=O)(O)O)[C@H]2O)[C@H]1OP(=O)(O)O [compound 5, 3' -O-(1″ -D-chiro-Inosityl)adenosine 2’, 3″, 4″ -trisphosphate]
